In brackets after ≈: the same amount, converted by molar mass. Peptide text beside a SMILES is read from it.
Assays:
[1] = tested on: P. aeruginosa ATCC 27853; assay type: cell-based, Pseudomonas aeruginosa; conditions: ATCC 27853, 24 h
Description: (§1) Escherichia coli (ATCC 25922), E. coli HB101, Pseudomonas aeruginosa (ATCC 27853), Staphylococcus aureus (ATCC 9144) and Corynebacterium glutamicum (ATCC 13032) were grown at 37°C in Mueller Hinton agar (MH; Difco Laboratories, Detroit, USA). The yeasts Candida albicans (ATCC 10231) and Saccharomyces cerevisiae spp and the mold Botrytis cinerea 101 [33] were cultivated on potato dextrose agar supplemented with 2% glucose at room temperature (RT).
(§2) Determination of the MIC against bacteria was performed by continuous monitoring of bacterial growth using a Bioscreen C microbiology reader (Labsystems Oy, Helsinki, Finland). The synthetic peptides were tested for antibacterial and antifungal activity at final concentrations (prepared from serial two-fold dilutions) ranging from 0.2 µM to 100 µM. The test was performed in 100-well flat-bottomed honeycomb plates, in which 50 µl peptide solution was incubated with 50 µl of a suspension of an actively growing culture of bacteria diluted to a starting concentration of 2.5×10^5 CFU/ml in Mueller Hinton Broth (MHB). The growth chamber was maintained at 37°C during the incubation period. The absorbance was measured by a turbidometric method with vertical light photometry and a wide band filter (420–580 nm). MIC was defined as the lowest concentration resulting in no visible bacterial growth after 24 h.

[2] = tested on: E. coli HB101; assay: Membrane integrity assay II (propidium iodide, flow cytometry); assay type: cell-based, Escherichia coli; conditions: at MIC; PI flow cytometry
Description: The effect of arasin 1(1–23) and cecropin P1 on membrane permeabilization was also studied by measuring the percentage of propidium iodide (PI) positive cells by flow cytometry. Samples of 1×10^6 cells/ml of E. coli HB101 were incubated in 50% MH with peptides at 37°C for different time span. After incubation, PI (Sigma Aldrich, Saint Louis, MO, USA) was added to the peptide-treated bacteria at a final concentration of 10 µg/ml. The cells were analyzed after 4 min of incubation with PI at 37°C in the flow cytometer as described.

[3] = tested on: S. aureus ATCC 9144; assay type: cell-based, Staphylococcus aureus; conditions: ATCC 9144, 24 h
Description: as §1, §2

[4] = tested on: Gram-negative bacteria; conditions: cited from earlier work
Description: The high standard deviation values only observed at 20 µM (5×MIC) for both the viability assay (Fig. 3) and the membrane integrity assay (Fig. 6) indicate that activity around this concentration was very sensitive to individual assay conditions.

[5] = tested on: E. coli HB101; assay: Bactericidal assay (killing kinetics, colony counts); assay type: cell-based, Escherichia coli; conditions: 50% MHB, 1×10^6 CFU/ml, 37°C
Description: During incubation, aliquots were removed at different time intervals, washed in buffered high salt solution (10 mM Na-phosphate, 400 mM NaCl, 10 mM MgCl2), diluted and plated on MH plates. The number of bacterial CFU was determined after approximately 48 h of incubation at 37°C.

[6] = tested on: E. coli HB101; assay: Antibacterial MIC assay (Bioscreen C growth monitoring); assay type: cell-based, Escherichia coli; conditions: 50% MH
Description: as §1, §2

[7] = tested on: C. glutamicum ATCC 13032; assay type: cell-based, Corynebacterium glutamicum; conditions: ATCC 13032, 24 h
Description: as §1, §2

[8] = tested on: C. albicans ATCC 10231; assay type: cell-based, Candida albicans; conditions: ATCC 10231, 48 h
Description: as §1
(§3) Fungal spores were dissolved in potato dextrose broth (Difco, Lawrence, KS, USA) and the cell concentration was determined and adjusted after counting in a Bürker chamber. Botrytis cinerea was filtered through a piece of cotton before counting. An aliquot of 50 µl of fungal spores (final concentration 2×10^5 spores/ml) were inoculated in 96-well Nunclon™ microtitre plates (Nagle Nunc Int. Roskilde, Denmark) along with 50 µl of synthetic peptide dissolved in Milli-Q water. Cultures were grown in a dark moist chamber without shaking at 20°C for S. cerevisiae and B. cinerea, and at 37°C for C. albicans. Growth inhibition was determined microscopically after 48 h of incubation. Inhibitory concentrations (IC50) was defined as the lowest concentration tested which yielded less than 50% visible growth compared to the growth control (fungi). Each peptide was tested in parallels in three individual runs for the antimicrobial assays.

[9] = tested on: E. coli HB101 constitutively expressing the luxCDABE operon; assay: Cell viability assay (luxCDABE luminescence); assay type: cell-based, Escherichia coli; conditions: at MIC, within the first 10 min after addition of peptide; 50% MH, OD600 0.2, 30°C
Description: E.coli HB101 was transformed with the plasmid pCGLS-11 to enable constitutive bacterial luciferase expression from the luxCDABE operon. The resulting strain was used for cell viability assays as follows. An overnight culture in MH medium with ampicillin (100 µg/ml) was pelleted at 3000×g for 10 min and washed in MH medium before re-suspending the cells in 50% MH medium with a final OD600 of approximately 0.2. After 30 min of incubation at 30°C the cells were again adjusted to an OD600 of 0.2. An aliquot of 95 µl of bacterial solution was dispensed into each well of a black 96 well microtiter plate with transparent bottom (Falcon, Bredford, MA, USA). To achieve the indicated concentrations, a multi-channel pipette was used to add 5 µl of a two-fold dilution series of peptide solution in water to 8 wells simultaneously. The plate was loaded into a Perkin-Elmer Envision microtiter plate reader immediately after addition of the peptide (arasin 1(1–23), PR-39(1–26) or cecropin P1) and the measurement started 30 sec later because of handling events and 2 seconds of shaking inside the plate reader. Light production and growth (OD595) of the sensor bacteria was followed for 3 h under repeated shaking cycles before each measurement at 30°C.

[10] = tested on: B. cinerea 101; assay type: cell-based, Botrytis cinerea
Description: as §1, §3

[11] = tested on: E. coli ATCC 25922; assay type: cell-based, Escherichia coli; conditions: ATCC 25922, 24 h
Description: as §1, §2

[12] = tested on: S. cerevisiae spp.; assay type: cell-based, Saccharomyces cerevisiae; conditions: 48 h
Description: as §1, §3

[13] = tested on: E. coli; assay: Antimicrobial activity at varied MH concentration; assay type: cell-based, Escherichia coli; conditions: results not shown
Source text: In contrast to the results from E. coli and P. aeruginosa, the C-terminal part of arasin 1(1–23) alone arasin 1(7–23) and 1(9–23) inhibits C. glutamicum and all the fungi. At the same time this antibacterial and antifungal activity is strictly dependent on a fragment between aa 13–23. This indicates a somewhat different mode of action for Gram- negative and Gram-positive bacteria, respectively. Likewise the mode of action against fungi is likely different. It is tempting to speculate that the N-terminal 5–10 amino acids might be involved in arasin 1(1–23) transfer across the outer membrane while the C-terminal part might bind the molecular target which is responsible for growth inhibition at low concentrations. The antimicrobial assays were all performed in MH or potato dextrose medium at a final concentration of 50% strength for bacteria and fungi, respectively. […] This means that the peptides are very sensitive to medium composition, and perhaps also salinity and/or ionic strength. […] In some studies, the use of diluted or poor medium instead of rich medium in MIC and mode of action studies is claimed to increase the sensitivity of the assays, [47]. The reasons of the medium-dependence have not been further evaluated, and 50% MH was used as the standard medium for the mode of action studies.

[14] = tested on: human red blood cells (RBC); assay: Hemolytic assay; conditions: read-out: EC50 (peptide concentration producing 50% hemolysis); 1% RBC suspension in PBS pH 7.4, 37°C, 1 h, absorbance at 550 nm; 100% hemolysis = 0.05% Triton X-100
Description: The erythrocytes were pelleted by centrifugation at 450×g for 10 min and washed three times with phosphate-buffered saline (PBS; 320 mOsm, pH 7.4). The cell pellet was resuspended in 4 ml PBS and adjusted to a suspension giving 10% RBC. The test was performed in a 96 well U-shaped microtiter plate (Nunclon™ Surface, No. 163320; Nagle Nunc Int., Roskilde, Denmark), in which 50 µl peptide were incubated with 40 µl PBS and 10 µl RBC suspension. The synthetic peptides were tested at final concentrations ranging from 0.2 to 100 µM. After incubation in a shaker at 37°C for 1 h, the plate was centrifuged at 200×g for 5 min. The supernatants (60 µl) were carefully transferred to a new flat-bottomed polycarbonate microtiter plate (Nunc™ No. 269620, Nagle Nunc Int., Roskilde, Denmark), and absorbance was measured at 550 nm. Baseline hemolysis and 100% hemolysis were defined as the amount of hemoglobin released in the presence of PBS and 0.05% Triton X-100 (Sigma-Aldrich, Saint Louis, MO, USA), respectively. The EC50 value was taken as the mean concentration of peptide producing 50% hemolysis.

Compound | MIC P. aeruginosa ATCC 27853 [1] [µM] | incubation time after which damage of the membrane was induced [2] [min] | MIC S. aureus ATCC 9144 [3] [µM] | MBC against Gram-negative bacteria [4] [µM] | time to kill all the bacteria [5] | MIC E. coli HB101 ([6]; lowest concentration with no visible bacterial growth after 24 h, 37°C, 2.5×10^5 cells/mL, representative of three individual experiments) [µM] | MIC against E. coli HB101 (figure legend) ([6]; value used for mode of action studies) [µM] | MIC C. glutamicum ATCC 13032 [7] [µM] | IC50 [8] [µM] | reduction of light emitted [9] [%] | IC50 B. cinerea 101 ([10]; lowest concentration tested giving less than 50% visible growth vs growth control, potato dextrose medium, 20°C, 48 h, three individual experiments) [µM] | MIC E. coli ATCC 25922 [11] [µM] | IC50 [12] [µM] | change of antimicrobial activity against E. coli by varying the MH concentration [13] | IC50 ([10]; 101, 48 h) [µM] | EC50 [14] [µM]
CC[C@H](C)[C@H](NC(=O)CNC(=O)[C@H](CCC(=O)O)NC(=O)[C@H](CO)NC(=O)[C@@H](NC(=O)[C@H](CCCNC(=N)N)NC(=O)[C@H](CCCCN)NC(=O)[C@H](CCCCN)NC(=O)[C@H](C)NC(=O)[C@H](CO)NC(=O)[C@H](CC(N)=O)NC(=O)[C@H](CCC(=O)O)NC(=O)[C@H](CC(C)C)NC(=O)[C@H](CCCCN)NC(=O)[C@H](CCCCN)NC(=O)[C@H](C)NC(=O)[C@@H](NC(=O)[C@H](CCCCN)NC(=O)[C@H](CO)NC(=O)[C@H](CC(C)C)NC(=O)[C@H](Cc1c[nH]c2ccccc12)NC(=O)[C@@H](N)CO)[C@@H](C)O)[C@@H](C)CC)C(=O)N[C@@H](C)C(=O)N[C@H](C(=O)N[C@@H](C)C(=O)N[C@H](C(=O)N[C@@H](CCC(N)=O)C(=O)NCC(=O)NCC(=O)N1CCC[C@H]1C(=O)N[C@@H](CCCNC(=N)N)C(=O)O)[C@@H](C)CC)[C@@H](C)CC [Cecropin P1, reference compound] (H-SWLSKTAKKLENSAKKRISEGIAIAIQGGPR-OH; N-terminus and C-terminus assumed) | 0.8 to 1.6 | 5 | >100 | 1 to 2 | approximately 15 min | 0.8 to 1.6 | 1 (≈ 3.34 µg/mL) | 0.4 to 1.6 | 12.5 | 60 | 50 | 0.8 to 1.6 | 6.3 | – | – | –
CC[C@H](C)[C@H](NC(=O)[C@H](CCCNC(=N)N)NC(=O)[C@@H]1CCCN1C(=O)[C@@H]1CCCN1C(=O)[C@H](CC(C)C)NC(=O)[C@H](CCCNC(=N)N)NC(=O)[C@@H]1CCCN1C(=O)[C@@H]1CCCN1C(=O)[C@H](Cc1ccccc1)NC(=O)[C@H](Cc1ccccc1)NC(=O)[C@@H]1CCCN1C(=O)[C@@H]1CCCN1C(=O)[C@@H]1CCCN1C(=O)[C@H](CCCNC(=N)N)NC(=O)[C@@H]1CCCN1C(=O)[C@H](CCCNC(=N)N)NC(=O)[C@@H]1CCCN1C(=O)[C@H](CC(C)C)NC(=O)[C@H](Cc1ccc(O)cc1)NC(=O)[C@@H]1CCCN1C(=O)[C@@H]1CCCN1C(=O)[C@H](CCCNC(=N)N)NC(=O)[C@@H]1CCCN1C(=O)[C@H](CCCNC(=N)N)NC(=O)[C@H](CCCNC(=N)N)NC(=O)[C@@H](N)CCCNC(=N)N)C(=O)O [PR39(1–26), reference compound] (H-RRRPRPPYLPRPRPPPFFPPRLPPRI-OH; N-terminus and C-terminus assumed) | 3.1 to 6.3 | – | 50 (≈ 161 µg/mL) | – | – | – | – | 0.4 (≈ 1.29 µg/mL) | 12.5 | – | – | 0.8 to 1.6 | 12.5 | did not change the antimicrobial activity | 12.5 | –
mellitin B: hemolytic control peptide purchased from Sigma-Aldrich | – | – | – | – | – | – | – | – | – | – | – | – | – | – | – | 2
